Test results taken from patent publication US20140112992A1, “PROCESS FOR FEBUXOSTAT” (HETERO RESEARCH FOUNDATION, priority 2011, published 2014).

Tests used:
[1] = Particle size distribution (D50) by laser diffraction, Sympatec Helos; format: physicochemical
Excerpt: The term “Particle Size Distribution (P.S.D.)” means the cumulative volume size distribution of equivalent spherical diameters as determined by laser diffraction at 1 bar dispersive pressure in Sympatec Helos equipment. “Mean particle size distribution, i.e., D50” correspondingly, means the median of said particle size distribution.

levels of uric acid = settings: compared to allopurinol; cited from earlier work

In the case of `Cc1nc(-c2ccc(OCC(C)C)c(C#N)c2)sc1C(=O)O` [Febuxostat crystalline Form H1, 2-[3-cyano-4-(2-methylpropoxy)phenyl]-4-methyl-5-thiazolecarboxylic acid], the “D50 (mean particle size distribution)” value ([1]; after grinding for 5 to 10 minutes) is reported as 2.15 μm and the “D50 (mean particle size distribution)” value ([1]; before grinding, in µm (unit assumed)) is reported as 322.46.
For `Cc1nc(-c2ccc(OCC(C)C)c(C#N)c2)sc1C(=O)O` [febuxostat, 2-[3-cyano-4-(2-methylpropoxy)phenyl]-4-methyl-5-thiazolecarboxylic acid], the “amount of initial gout flares or surface area of gout tophi” value (levels of uric acid) is listed as “no difference” and the “individuals with decreased levels of uric acid” value (levels of uric acid) is listed as “more individuals treated with febuxostat had decreased levels of uric acid”.
